Measurements published in the supplement of paper PMC11061612.

Assays:
[1] = compound: C1CN(CCC1(C(=O)N[C@@H](CCO)C2=CC=C(C=C2)Cl)N)C3=NC=NC4=C3C=CN4 [AZD5363]; settings: max 10 µM
Outline: (§1)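 In 1536-well plates, cancer cell lines in 7.5 μl DMEM/F12 or RPMI with 10% FBS spent 24 hours at 37°C and 5% CO2 and were then dosed for 72 hours with final DMSO typically 0.2%. Viability was read by CellTiter-Glo 2.0 luminescence and scaled between blank-well and DMSO-well means. The single-agent IC50 was fitted from dose responses using a logistic curve in a non-linear mixed effects model, and that logistic curve had two parameters.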

[2] = compound: C=CCn1c(=O)c2cnc(Nc3ccc(N4CCN(C)CC4)cc3)nc2n1-c1cccc(C(C)(C)O)n1 [AZD1775]; settings: max 3 µM
Outline: as §1

[3] = compound: CN(CC[C@H](CSC1=CC=CC=C1)NC2=C(C=C(C=C2)S(=O)(=O)NC(=O)C3=CC=C(C=C3)N4CCC(CC4)[C@H](C5=CC=CC=C5C6=CC=C(C=C6)Cl)O)S(=O)(=O)C(F)(F)F)CCO [AZD4320]; settings: max 1 µM
Outline: as §1

[4] = compound: COc1nnc2ccc(N3CCC(c4ccc(OCCN5CCN(C)C(=O)[C@H]5C)cc4)CC3)nn12 [AZD5153]; settings: max 1 µM
Outline: as §1

[5] = compound: Cc1c2c(nn1C)CSCc1cc(n(C)n1)CSc1cc(c3ccccc3c1)OCCCc1c(C(=O)O)n(C)c3c-2c(Cl)ccc13 [AZD5991]; settings: max 1 µM
Outline: as §1

[6] = compound: C[C@@H](c1ccc2nccn2c1)n1nnc2ncc(-c3cnn(C)c3)nc21 [Savolitinib]; settings: max 1 µM
Outline: as §1

[7] = compound: Cc1cc2ncnn2cc1Nc1ncc2c(n1)n(C1CCOCC1)c(=O)n2C [AZD7648]; settings: max 10 µM
Outline: as §1

[8] = compound: CCc1c2c(nc3ccc(O)cc13)-c1cc3c(c(=O)n1C2)COC(=O)[C@]3(O)CC [SN-38]; settings: max 0.3 µM
Outline: as §1

[9] = compound: CC(=O)c1c(C)c2cnc(Nc3ccc(N4CCNCC4)cn3)nc2n(C2CCCC2)c1=O [Palbociclib]; settings: max 10 µM
Outline: as §1

[10] = compound: N#Cc1cnc(Nc2cc(NC[C@H]3CNCCO3)c(C(F)(F)F)cn2)cn1 [SRA737]; settings: max 10 µM
Outline: as §1

[11] = compound: NC1(c2ccc(-c3nc4ccn5c(=O)[nH]nc5c4cc3-c3ccccc3)cc2)CCC1 [MK-2206]; settings: max 10 µM
Outline: as §1

[12] = compound: C[C@@H]1COCCN1C2=NC(=NC(=C2)C3(CC3)[S@](=N)(=O)C)C4=C5C=CNC5=NC=C4 [AZD6738]; settings: max 10 µM
Outline: as §1

[13] = compound: C[C@@H](Nc1cc(F)cc(F)c1)c1cc(C(=O)N(C)C)cc2c(=O)cc(N3CCOCC3)oc12 [AZD8186]; settings: max 10 µM
Outline: as §1

[14] = compound: Cc1nc(-c2cn3c(n2)-c2ccc(-c4cnn(C(C)(C)C(N)=O)c4)cc2OCC3)n(C(C)C)n1 [Taselisib]; settings: max 10 µM
Outline: as §1

[15] = compound: C1CC(C1)(C(=O)[O-])C(=O)[O-].N.N.[Pt+2] [Carboplatin]; settings: max 10 µM
Outline: as §1

[16] = compound: COc1cc(Nc2ncc3c(n2)-c2ccc(Cl)cc2C(c2c(F)cccc2OC)=NC3)ccc1C(=O)O [Alisertib]; settings: max 10 µM
Outline: as §1

[17] = compound: Nc1ccn([C@@H]2O[C@H](CO)[C@@H](O)C2(F)F)c(=O)n1 [Gemcitabine]; settings: max 0.3 µM
Outline: as §1

[18] = compound: COc1cc2ncnc(Nc3ccc(F)c(Cl)c3)c2cc1OCCCN1CCOCC1 [Gefitinib]; settings: max 10 µM
Outline: as §1

[19] = compound: COc1cccc(OCCCN)c1-c1cc(Nc2cnc(C#N)cn2)n[nH]1 [Prexasertib]; settings: max 1 µM
Outline: as §1

[20] = compound: CC1=CN2[C@@H](C1)C=NC3=CC(=C(C=C3C2=O)OC)OCCCCCOC4=C(C=C5C(=C4)N=C[C@@H]6CC(=CN6C5=O)C)OC [SG3199]; settings: max 0.001 µM
Outline: as §1

[21] = compound: CC(=O)O[C@H]1C(=O)[C@@]2(C)[C@H]([C@H](OC(=O)c3ccccc3)[C@]3(O)C[C@H](OC(=O)[C@H](O)[C@@H](NC(=O)c4ccccc4)c4ccccc4)C(C)=C1C3(C)C)[C@]1(OC(C)=O)CO[C@@H]1C[C@@H]2O [Paclitaxel]; settings: max 3 µM
Outline: as §1

[22] = compound: CCN(CCO)CCCOc1ccc2c(Nc3cc(CC(=O)Nc4cccc(F)c4)[nH]n3)ncnc2c1 [AZD2811]; settings: max 1 µM
Outline: as §1

[23] = compound: CC(C)n1c(=O)n(C)c2cnc3cc(F)c(-c4ccc(OCCCN5CCCCC5)nc4)cc3c21 [AZD1390]; settings: max 0.3 µM
Outline: as §1

[24] = compound: CC(=O)Nc1cccc(-n2c(=O)n(C3CC3)c(=O)c3c(Nc4ccc(I)cc4F)n(C)c(=O)c(C)c32)c1 [Trametinib]; settings: max 1 µM
Outline: as §1

[25] = compound: COc1cc([C@@H]2c3cc4c(cc3[C@@H](O[C@@H]3O[C@@H]5CO[C@@H](C)O[C@H]5[C@H](O)[C@H]3O)[C@H]3COC(=O)[C@H]23)OCO4)cc(OC)c1O [Etoposide]; settings: max 10 µM
Outline: as §1

[26] = compound: C[C@@H](Oc1cc(-c2cnn(C3CCNCC3)c2)cnc1N)c1c(Cl)ccc(F)c1Cl [Crizotinib]; settings: max 10 µM
Outline: as §1

[27] = compound: CS(=O)(=O)CCNCc1ccc(-c2ccc3ncnc(Nc4ccc(OCc5cccc(F)c5)c(Cl)c4)c3c2)o1 [Lapatinib]; settings: max 10 µM
Outline: as §1

[28] = compound: CC1=C(C(=CC=C1)Cl)NC(=O)C2=CN=C(S2)NC3=CC(=NC(=N3)C)N4CCN(CC4)CCO [Dasatinib]; settings: max 2 µM
Outline: as §1

[29] = compound: CN(C)CCCOc1ccc(-c2ccc3ncc4c(c3c2)n(C2CCOCC2)c(=O)n4C)cn1 [AZD0156]; settings: max 3 µM
Outline: as §1

[30] = compound: Cn1cnc2c(F)c(Nc3ccc(Br)cc3Cl)c(C(=O)NOCCO)cc21 [Selumetinib]; settings: max 10 µM
Outline: as §1

[31] = compound: O=c1[nH]cc(F)c(=O)[nH]1 [5-Fluorouracil]; settings: max 20 µM
Outline: as §1

[32] = compound: O=C(c1cc(Cc2n[nH]c(=O)c3ccccc23)ccc1F)N1CCN(C(=O)C2CC2)CC1 [Olaparib]; settings: max 10 µM
Outline: as §1

[33] = compound: COc1cccc2c1C(=O)c1c(O)c3c(c(O)c1C2=O)C[C@@](O)(C(=O)CO)C[C@@H]3O[C@H]1C[C@H](N)[C@H](O)[C@H](C)O1 [Doxorubicin]; settings: max 1 µM
Outline: as §1

[34] = compound: O=C(Nc1ccc2[nH]nc(-c3ccncc3)c2c1)[C@@H]1CCN(CC(=O)N2CCN(c3ccc(-c4ncccn4)cc3)CC2)C1; settings: max 5 µM
Outline: as §1

[35] = compound: CC1(C)CCC(CN2CCN(c3ccc(C(=O)NS(=O)(=O)c4ccc(NCC5CCOCC5)c([N+](=O)[O-])c4)c(Oc4cnc5[nH]ccc5c4)c3)CC2)=C(c2ccc(Cl)cc2)C1 [Venetoclax]; settings: max 1 µM
Outline: as §1

Row | Cell Line | IC50, cell viability 72 h [1] | IC50, cell viability 72 h [2] | IC50, cell viability 72 h [3] | IC50, cell viability 72 h [4] | IC50, cell viability 72 h [5] | IC50, cell viability 72 h [6] | IC50, cell viability 72 h [7] | IC50, cell viability 72 h [8] | IC50, cell viability 72 h [9] | IC50, cell viability 72 h [10] | IC50, cell viability 72 h [11] | IC50, cell viability 72 h [12] | IC50, cell viability 72 h [13] | IC50, cell viability 72 h [14] | IC50, cell viability 72 h [15] | IC50, cell viability 72 h [16] | IC50, cell viability 72 h [17] | IC50, cell viability 72 h [18] | IC50, cell viability 72 h [19] | IC50, cell viability 72 h [20] | IC50, cell viability 72 h [21] | IC50, cell viability 72 h [22] | IC50, cell viability 72 h [23] | IC50, cell viability 72 h [24] | IC50, cell viability 72 h [25] | IC50, cell viability 72 h [26] | IC50, cell viability 72 h [27] | IC50, cell viability 72 h [28] | IC50, cell viability 72 h [29] | IC50, cell viability 72 h [30] | IC50, cell viability 72 h [31] | IC50, cell viability 72 h [32] | IC50, cell viability 72 h [33] | IC50, cell viability 72 h [34] | IC50, cell viability 72 h [35]
1 | SCC-9 (Oral Cavity Carcinoma) | > 10 µM | 2.83 µM | > 1 µM | > 1 µM | > 1 µM | > 1 µM | > 10 µM | > 0.3 µM | > 10 µM | > 10 µM | > 10 µM | > 10 µM | > 10 µM | 2.14 µM | > 10 µM | > 10 µM | > 0.3 µM | > 10 µM | > 1 µM | > 0.001 µM | 0.284 µM | > 1 µM | > 0.3 µM | > 1 µM | > 10 µM | > 10 µM | 5.06 µM | 1.15 µM | > 3 µM | > 10 µM | > 20 µM | > 10 µM | > 1 µM | > 5 µM | > 1 µM
2 | NB7 (Neuroblastoma) | > 10 µM | 0.963 µM | > 1 µM | > 1 µM | > 1 µM | > 1 µM | > 10 µM | 0.0349 µM | > 10 µM | > 10 µM | > 10 µM | > 10 µM | > 10 µM | > 10 µM | > 10 µM | 6.06 µM | 0.141 µM | > 10 µM | 0.072 µM | > 0.001 µM | 0.268 µM | > 1 µM | > 0.3 µM | > 1 µM | 6.52 µM | > 10 µM | > 10 µM | > 2 µM | > 3 µM | > 10 µM | > 20 µM | > 10 µM | > 1 µM | > 5 µM | > 1 µM
3 | H-EMC-SS (Chondrosarcoma) | > 10 µM | > 3 µM | > 1 µM | > 1 µM | > 1 µM | > 1 µM | > 10 µM | 0.153 µM | > 10 µM | > 10 µM | > 10 µM | > 10 µM | > 10 µM | 3.36 µM | > 10 µM | 8.38 µM | > 0.3 µM | > 10 µM | > 1 µM | > 0.001 µM | > 3 µM | > 1 µM | > 0.3 µM | 0.293 µM | > 10 µM | > 10 µM | > 10 µM | > 2 µM | > 3 µM | > 10 µM | > 20 µM | > 10 µM | 0.428 µM | > 5 µM | > 1 µM
4 | OCUM-1 (Gastric Carcinoma) | 8.9 µM | 1.51 µM | 0.571 µM | 0.645 µM | > 1 µM | > 1 µM | > 10 µM | 0.0486 µM | > 10 µM | > 10 µM | > 10 µM | 2.95 µM | > 10 µM | > 10 µM | > 10 µM | > 10 µM | 0.11 µM | > 10 µM | 0.0781 µM | > 0.001 µM | 2.62 µM | > 1 µM | > 0.3 µM | 0.00185 µM | > 10 µM | > 10 µM | > 10 µM | > 2 µM | > 3 µM | 0.063 µM | > 20 µM | > 10 µM | > 1 µM | 0.0359 µM | > 1 µM
5 | TGBC11TKB (Gastric Carcinoma) | > 10 µM | 0.287 µM | > 1 µM | > 1 µM | > 1 µM | > 1 µM | > 10 µM | 0.159 µM | > 10 µM | 1.71 µM | > 10 µM | 2.02 µM | > 10 µM | > 10 µM | > 10 µM | > 10 µM | 0.0454 µM | > 10 µM | 0.0112 µM | > 0.001 µM | 0.0204 µM | > 1 µM | > 0.3 µM | 0.522 µM | > 10 µM | > 10 µM | > 10 µM | > 2 µM | > 3 µM | 8.4 µM | > 20 µM | > 10 µM | > 1 µM | > 5 µM | > 1 µM
